Read-outs that look alike come from different tables or passages of the source.
Key:
HPV-11 = test: Low risk HPV origin plasmid replication assay (qPCR) in HEK 293 cells; assay type: cell-based, human papillomavirus
Method: (§1) An origin-containing low risk or high risk HPV plasmid was co-transfected with homologous E1 and E2 protein expression vectors into HEK 293 cells. At 4 h post-transfection, cells were treated with test compound dilutions and then incubated for 48 h. HPV origin plasmid replication was detected after digestion with DpnI and exonuclease III to remove unreplicated transfected plasmids. Remaining replicated DNA was quantified by quantitative real time PCR (qPCR). In a parallel experiment in uninfected cells cytotoxicity was determined by trypan blue exclusion or CELLTITER-GLO® to find the concentration that reduced viable cell number by 50% (CC50). CC50 values were determined by trypan blue exclusion or CELLTITER-GLO® and the selectivity index calculated (Selectivity index=CC50/EC50). The low risk HPV tested was HPV-11, and the high-risk HPV tested was HPV-16 and HPV-18.

HPV-16 and HPV-18 = test: High risk HPV origin plasmid replication assay (qPCR) in HEK 293 cells; assay type: cell-based, human papillomavirus; settings: read-out: High Risk (EC50)
Method: as §1

HEK-293 cells = test: Cytotoxicity assay in HEK-293 cells (trypan blue exclusion or CellTiter-Glo); assay type: cell-based
Method: as §1
Cytotoxicity Assays in HEK-293 cells. Cytotoxicity assays are performed in concurrently with every antiviral assay using the same cell line and media to ensure the same compound exposure. For the antiviral studies against HPV11 in HEK-293 cells, transfected cells are seeded in duplicate plates. […] At 48 h following compound addition, CELLTITER-GLO® (Promega) is added to each well and luminescence is determined on a luminometer. […]

[1] = tested on: human foreskin fibroblast (HFF) cells; test: Cytotoxicity assay in primary human foreskin fibroblast cells (CellTiter-Glo); assay type: cell-based; settings: 7d incubation
Method: Cytotoxicity Assays in Primary Human Foreskin Fibroblast Cells. Cytotoxicity was also evaluated in human foreskin fibroblast (HFF) cells as they are a highly sensitive indicator of toxicity in a standard assay with 7 d of compound exposure. A total of 4000 cells/well are seeded in 384-well plates in cell culture media containing 2% fetal bovine serum and antibiotics. Following a 24 h incubation, 5-fold compound dilutions are performed in duplicate wells directly in the plates containing monolayers of HFF cells. At 7 d following compound addition, CellTiter-Glo reagent is added to each well and resulting luminescence is measured on a luminometer to assess the number of viable cells in each well. Data are then used to calculate CC50 values.

[2] = low risk HPV tested was HPV-11, HEK 293 cells, 48 h incubation, read-out: Low Risk (EC50)

Structure (SMILES): CCCCCCCCCCCCCCCCCCOCC(COP(=O)(O)COCCn1cnc2c(=O)[nH]c(N)nc21)OCc1ccccc1 (stereo not shown) [ODBG-PMEG, 1-O-Octadecyl-2-O-benzyl-sn-glyceryl PMEG]
- EC50 (HPV-11; Human papillomavirus, HEK293, low risk HPV tested was HPV-11, HEK 293 cells, 48 h incubation, read-out: Low Risk (EC50)): 0.3 to 3 µM
- EC50 (HPV-16 and HPV-18; Human papillomavirus, HEK293, 48 h): 0.3 to 3 µM

Structure (SMILES): CCCCCCCCCCCCCCCCCCOCCOP(=O)(O)COCCn1cnc2c(=O)[nH]c(N)nc21 [ODE-PMEG, Octadecyloxyethyl-Phosphonomethoxyethylguanine]
- EC50 (HPV-11; [2]): < 0.3 µM
- EC50 (HPV-16 and HPV-18; high-risk HPV tested was HPV-16 and HPV-18, HEK 293 cells, 48 h incubation): < 0.3 µM

Structure (SMILES): CCOC(=O)[C@H](C)NP(=O)(COCCn1cnc2c(=O)[nH]c(N)nc21)Oc1ccccc1 (stereo partly shown) [PMEG phenoxy amidate Example 10]
- EC50 (HPV-11; Human papillomavirus, HEK293): 7.56 ± 0.63 µM
- EC90 (HPV-11; Human papillomavirus, HEK293): > 100 µM
- CC50 (HEK-293 cells; CellTiter-Glo, 2d incubation, read-out: Cytotoxicity CC50, HEK 293 (2d incubation)): > 100 µM
- CC50 (HEK-293 cells; Table B, HEK-293 cells, parallel to HPV-11 antiviral assay, read-out: CC50): > 100 µM
- CC50 [1]: 70.9 ± 4.07 µM

Structure (SMILES): Nc1nc2c(ncn2CCOCP(=O)(O)O)c(=O)[nH]1 [PMEG, 9-(2-phosphonylmethoxyethyl) guanine, reference compound]
- EC50 (HPV-11; [2]): 3 to 30 µM
